According to patent publication US20020137929A1, “1 - (3-heterocyclylphenyl) isothiourea, -isourea, -guanidine and -amidine herbicidal agents” (Intellectual Property Department, BASF Aktiengesellschaft, priority 1998, published 2002):

Experiments:
ABUTH (Velvetleaf) [1] = test: Postemergence herbicidal evaluation; format: in vivo, Abutilon theophrasti; conditions: postemergence
In short: (§1)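 Visual 0-9 injury score (stand, vigor, malformation, size, chlorosis, appearance vs untreated) taken four to five weeks post-spray, averaged across repeat tests. Test plants about two weeks old; foliar spray of acetone/water (1:1) with 0.5% surfactant delivering ~0.0156-0.500 kg active/ha.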

ZEAMX (Corn, Field) [2] = test: Postemergence herbicidal evaluation; format: in vivo, Zea mays; conditions: postemergence
In short: as §1

ZEAMX (Corn, Field) [3] = test: Preemergence herbicidal evaluation; format: in vivo, Zea mays; conditions: rated 4-5 weeks after treatment
In short: (§2)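 Preemergence soil application of compound, sprayed in aqueous acetone at rates equivalent to about 0.0156 to 0.500 kg per hectare onto freshly sown cups. Plant response was judged by eye on a 0-9 scale four to five weeks later.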

CASOB (Sicklepod) = test: Preemergence herbicidal evaluation; format: in vivo, Cassia obtusifolia; conditions: rated 4-5 weeks after treatment
In short: as §2

[4] = system: TRZAWR (Wheat, Winter, cv Riband); test: Preemergence herbicidal evaluation; format: in vivo, Triticum aestivum; conditions: rated 4-5 weeks after treatment
In short: as §2

ABUTH (Velvetleaf) [5] = test: Preemergence herbicidal evaluation; format: in vivo, Abutilon theophrasti; conditions: rated 4-5 weeks after treatment
In short: as §2

[6] = system: CHEAL (Lambsquarters, Common); test: Preemergence herbicidal evaluation; format: in vivo, Chenopodium album; conditions: rated 4-5 weeks after treatment
In short: as §2

ECHCG (Barnyardgrass) [7] = test: Postemergence herbicidal evaluation; format: in vivo, Echinochloa crus-galli; conditions: postemergence
In short: as §1

[8] = system: IPOHE (Morningglory, Ivyleaf); test: Preemergence herbicidal evaluation; format: in vivo, Ipomoea hederacea; conditions: rated 4-5 weeks after treatment
In short: as §2

ECHCG (Barnyardgrass) [9] = test: Preemergence herbicidal evaluation; format: in vivo, Echinochloa crus-galli; conditions: rated 4-5 weeks after treatment
In short: as §2

[10] = system: CHEAL (Lambsquarters, Common); test: Postemergence herbicidal evaluation; format: in vivo, Chenopodium album; conditions: postemergence
In short: as §1

SETVI (Foxtail, Green) = test: Postemergence herbicidal evaluation; format: in vivo, Setaria viridis; conditions: postemergence
In short: as §1

[11] = system: GLXMAW (Soybean, Williams); test: Preemergence herbicidal evaluation; format: in vivo, Glycine max, (L.) Merr. cv Williams; conditions: rated 4-5 weeks after treatment
In short: as §2

[12] = system: IPOHE (Morningglory, Ivyleaf); test: Postemergence herbicidal evaluation; format: in vivo, Ipomoea hederacea; conditions: postemergence
In short: as §1

ORYSAT (Rice, Tebonnet) = test: Postemergence herbicidal evaluation; format: in vivo, Oryza sativa, (L.) Tebonnet; conditions: postemergence
In short: as §1

Cn1c(C(F)(F)F)cc(=O)n(-c2cc(N=C3SCC(=O)N3CC(=O)OCC3CC3)c(Cl)cc2F)c1=O [Compound 124, Cyclopropylmethyl 2-{{2-chloro-5-[3,6-dihydro-3-methyl-2,6-dioxo-4-(trifluoromethyl)-1(2H)-pyrimidinyl]-4-fluorophenyl}imino}-4-oxo-3-thiazolidineacetate]
herbicidal rating ABUTH (ABUTH (Velvetleaf) [1]; rate 0.0156 kg/ha): 7.0
herbicidal rating ABUTH (ABUTH (Velvetleaf) [1]; rate 0.0313 kg/ha): 9.0
herbicidal rating ABUTH (ABUTH (Velvetleaf) [1]; rate 0.0625 kg/ha): 9.0
herbicidal rating ZEAMX (ZEAMX (Corn, Field) [2]; rate 0.0156 kg/ha): 6.3
herbicidal rating ZEAMX (ZEAMX (Corn, Field) [2]; rate 0.0313 kg/ha): 7.3
herbicidal rating ZEAMX (ZEAMX (Corn, Field) [2]; rate 0.0625 kg/ha): 8.0
Preemergence herbicidal rating ZEAMX (ZEAMX (Corn, Field) [3]; rate 0.0156 kg/ha): 0.0
Preemergence herbicidal rating ZEAMX (ZEAMX (Corn, Field) [3]; rate 0.0313 kg/ha): 0.0
Preemergence herbicidal rating ZEAMX (ZEAMX (Corn, Field) [3]; rate 0.0625 kg/ha): 0.0
Preemergence herbicidal rating ZEAMX (ZEAMX (Corn, Field) [3]; rate 0.1250 kg/ha): 0.0
Preemergence herbicidal rating ZEAMX (ZEAMX (Corn, Field) [3]; rate 0.2500 kg/ha): 0.0
Preemergence herbicidal rating ZEAMX (ZEAMX (Corn, Field) [3]; rate 0.5000 kg/ha): 1.0
Preemergence herbicidal rating CASOB (CASOB (Sicklepod); rate 0.0156 kg/ha): 0.0
Preemergence herbicidal rating CASOB (CASOB (Sicklepod); rate 0.0313 kg/ha): 0.0
Preemergence herbicidal rating CASOB (CASOB (Sicklepod); rate 0.0625 kg/ha): 1.0
Preemergence herbicidal rating CASOB (CASOB (Sicklepod); rate 0.1250 kg/ha): 0.0
Preemergence herbicidal rating CASOB (CASOB (Sicklepod); rate 0.2500 kg/ha): 3.0
Preemergence herbicidal rating CASOB (CASOB (Sicklepod); rate 0.5000 kg/ha): 0.0
Preemergence herbicidal rating TRZAWR ([4]; rate 0.0156 kg/ha): 0.0
Preemergence herbicidal rating TRZAWR ([4]; rate 0.0313 kg/ha): 0.0
Preemergence herbicidal rating TRZAWR ([4]; rate 0.0625 kg/ha): 0.0
Preemergence herbicidal rating TRZAWR ([4]; rate 0.1250 kg/ha): 0.0
Preemergence herbicidal rating TRZAWR ([4]; rate 0.2500 kg/ha): 0.0
Preemergence herbicidal rating TRZAWR ([4]; rate 0.5000 kg/ha): 0.0
Preemergence herbicidal rating ABUTH (ABUTH (Velvetleaf) [5]; rate 0.0156 kg/ha): 0.0
Preemergence herbicidal rating ABUTH (ABUTH (Velvetleaf) [5]; rate 0.0313 kg/ha): 0.0
Preemergence herbicidal rating ABUTH (ABUTH (Velvetleaf) [5]; rate 0.0625 kg/ha): 0.0
Preemergence herbicidal rating ABUTH (ABUTH (Velvetleaf) [5]; rate 0.1250 kg/ha): 2.0
Preemergence herbicidal rating ABUTH (ABUTH (Velvetleaf) [5]; rate 0.2500 kg/ha): 4.0
Preemergence herbicidal rating ABUTH (ABUTH (Velvetleaf) [5]; rate 0.5000 kg/ha): 7.0
Preemergence herbicidal rating CHEAL ([6]; rate 0.0156 kg/ha): 9.0
Preemergence herbicidal rating CHEAL ([6]; rate 0.0313 kg/ha): 9.0
Preemergence herbicidal rating CHEAL ([6]; rate 0.0625 kg/ha): 9.0
Preemergence herbicidal rating CHEAL ([6]; rate 0.1250 kg/ha): 9.0
Preemergence herbicidal rating CHEAL ([6]; rate 0.2500 kg/ha): 9.0
Preemergence herbicidal rating CHEAL ([6]; rate 0.5000 kg/ha): 9.0
herbicidal rating ECHCG (ECHCG (Barnyardgrass) [7]; rate 0.0156 kg/ha): 3.0
herbicidal rating ECHCG (ECHCG (Barnyardgrass) [7]; rate 0.0313 kg/ha): 3.0
herbicidal rating ECHCG (ECHCG (Barnyardgrass) [7]; rate 0.0625 kg/ha): 5.0
Preemergence herbicidal rating IPOHE ([8]; rate 0.0156 kg/ha): 0.0
Preemergence herbicidal rating IPOHE ([8]; rate 0.0313 kg/ha): 0.0
Preemergence herbicidal rating IPOHE ([8]; rate 0.0625 kg/ha): 0.0
Preemergence herbicidal rating IPOHE ([8]; rate 0.1250 kg/ha): 0.0
Preemergence herbicidal rating IPOHE ([8]; rate 0.2500 kg/ha): 1.0
Preemergence herbicidal rating IPOHE ([8]; rate 0.5000 kg/ha): 6.0
Preemergence herbicidal rating ECHCG (ECHCG (Barnyardgrass) [9]; rate 0.0156 kg/ha): 0.0
Preemergence herbicidal rating ECHCG (ECHCG (Barnyardgrass) [9]; rate 0.0313 kg/ha): 0.0
Preemergence herbicidal rating ECHCG (ECHCG (Barnyardgrass) [9]; rate 0.0625 kg/ha): 0.0
Preemergence herbicidal rating ECHCG (ECHCG (Barnyardgrass) [9]; rate 0.1250 kg/ha): 0.0
Preemergence herbicidal rating ECHCG (ECHCG (Barnyardgrass) [9]; rate 0.2500 kg/ha): 0.0
Preemergence herbicidal rating ECHCG (ECHCG (Barnyardgrass) [9]; rate 0.5000 kg/ha): 1.0
herbicidal rating CHEAL ([10]; rate 0.0156 kg/ha): 9.0
herbicidal rating CHEAL ([10]; rate 0.0313 kg/ha): 9.0
herbicidal rating CHEAL ([10]; rate 0.0625 kg/ha): 9.0
herbicidal rating SETVI (SETVI (Foxtail, Green); rate 0.0156 kg/ha): 3.0
herbicidal rating SETVI (SETVI (Foxtail, Green); rate 0.0313 kg/ha): 5.0
herbicidal rating SETVI (SETVI (Foxtail, Green); rate 0.0625 kg/ha): 5.0
Preemergence herbicidal rating GLXMAW ([11]; rate 0.0156 kg/ha): 0.0
Preemergence herbicidal rating GLXMAW ([11]; rate 0.0313 kg/ha): 0.0
Preemergence herbicidal rating GLXMAW ([11]; rate 0.0625 kg/ha): 0.0
Preemergence herbicidal rating GLXMAW ([11]; rate 0.1250 kg/ha): 0.0
Preemergence herbicidal rating GLXMAW ([11]; rate 0.2500 kg/ha): 0.0
Preemergence herbicidal rating GLXMAW ([11]; rate 0.5000 kg/ha): 3.0
herbicidal rating IPOHE ([12]; rate 0.0156 kg/ha): 9.0
herbicidal rating IPOHE ([12]; rate 0.0313 kg/ha): 9.0
herbicidal rating IPOHE ([12]; rate 0.0625 kg/ha): 9.0
herbicidal rating ORYSAT (ORYSAT (Rice, Tebonnet); rate 0.0156 kg/ha): 3.3
herbicidal rating ORYSAT (ORYSAT (Rice, Tebonnet); rate 0.0313 kg/ha): 3.0
herbicidal rating ORYSAT (ORYSAT (Rice, Tebonnet); rate 0.0625 kg/ha): 3.0
